# Source: ChEMBL document CHEMBL3507680, “University of Dundee, Gates Library screen for HepG2 cell viability”
# Test: Human HepG2 cell viability assay in 384 well format
# Format: toxicity, cell-based
# Parameters: dose 125 nL, time 70.5 hour; cytotoxicity at 70.5 h: concentration not given beside the values
# Conditions: HepG2 cells, read-out: Inhibition
row,Compound,cytotoxicity at 70.5 h [%]
1,COc1ccc(C[C@H]2CN(C(=O)c3ccn(C)n3)CC[C@H]2OC)cc1,-0.598
2,O=C1CC(NS(=O)(=O)N2CCOCC2)CN1CCc1ccccc1 (configuration not stated),-3.7
3,COCC(=O)N1CCN(C(C)c2ncc(-c3ccccc3)o2)CC1 (configuration not stated),-13.2
4,COCCCNC(=O)Cc1cc(-c2ccccc2)on1,-0.233
5,Cc1cc(-c2cnc(NC3CC3)nc2-c2ccoc2)on1,2.18
6,O=C(NCc1cccnc1)c1cn(CCc2ccccc2)nn1,14
7,c1ccc(-n2cnnc2CCCN2CCOCC2)cc1,-2.59
8,COCc1ncc(CN2CCC(Oc3ccc(OC)cc3)CC2)cn1,-20.2
9,Cc1ccccc1-n1ccc2nc(N3CCCC3)ncc2c1=O,-13.6
10,CCc1nc(CN2CCCC(NCc3ccc(C(N)=O)cc3)C2)no1 (configuration not stated),-10.1
11,CC(NC(=O)NCC1(c2ccc(F)cc2)CCCC1)c1nncn1C (configuration not stated),-3.48
12,Cc1nc(C)n(CC2CN(c3nnc(C)c(C)c3C#N)CCO2)n1 (configuration not stated),5.76
13,CCN(C(C)c1cccc(O)c1)S(=O)(=O)c1cccnc1 (configuration not stated),5.84
14,Cc1cnn(CCNCc2ccc(F)cc2Cl)c1,-10.2
15,O=C(c1cccnc1)N1CCCC1c1nc(O)cc(-c2ccccn2)n1 (configuration not stated),-6.66
16,CCc1ccc(CN2CCC(=O)N(CC3CC3)C(C(C)C)C2)nc1 (configuration not stated),-11.4
17,O=C(c1nc(=O)[nH][nH]1)N1CCCC(c2cc(C(F)(F)F)[nH]n2)C1 (configuration not stated),34.5
18,CCCn1ncc(CN2C[C@@H]3CCCN3C[C@H]2CCSC)c1C,-1.67
19,CC(c1ccco1)N(C)Cc1nc2c(cnn2C)c(=O)[nH]1 (configuration not stated),-11.1
20,COc1ccc(C2CCCN2C(=O)c2ccnc(NC3CC3)c2)cc1 (configuration not stated),6.42
21,CC(=O)NCCNC(=O)c1sc(-c2ccc(Cl)s2)nc1C,28.8
22,CC(=O)N1CCN(CCNS(=O)(=O)c2c(F)cccc2F)CC1,-5.97
23,CO[C@@H]1CC[C@@H](NS(=O)(=O)c2cn(C)nc2C)[C@H]1O,-1.72

row,Compound,cytotoxicity at 70.5 h [%]
1,Cn1nccc1CNC(=O)C1CCCCC1,-2.81
2,CN(C(=O)Nc1cccnc1)C1CCN(c2ccc(Cl)cc2)CC1,0.04
3,CCc1ccc(S(=O)(=O)NCCC(O)c2ccoc2)s1 (configuration not stated),-10.1
4,COc1ccc(CNC(=O)N2CCC(Cc3cnn(C)c3)C2)cc1C (configuration not stated),-3.46
5,Cc1nc(CNCC2Cn3nncc3CO2)cs1 (configuration not stated),-2.11
6,COc1ccc2c(c1)OCC(CNC(=O)c1ccc3[nH]nnc3c1)C2 (configuration not stated),-9.44
7,Cc1cc(=O)[nH]c(-n2nc(C)c(CCC(=O)Nc3nc(C)cs3)c2C)n1,-3.34
8,Cc1cc(-c2cnc(C)nc2CN(C)C(=O)c2cc(C3CC3)on2)on1,-3.21
9,Cc1cc(C(F)F)nn1C(C)C(=O)NCc1ncc[nH]1 (configuration not stated),-1.75
10,Cc1ccccc1NC(=O)N1CC[C@@H]2CN(CC(C)C)S(=O)(=O)[C@@H]2CC1,-9.9
11,COc1ccc(CCNC(=O)N2CCCC(c3nncn3C)C2)cc1 (configuration not stated),-4.56
12,COCCN(CC1CCCN(C2Cc3ccccc3C2)C1)C(=O)CSC (configuration not stated),-2.79
13,O=C1NC(c2ccccc2)=N[C@@]12CC[C@@H]1CN(Cc3ccncc3)C[C@@H]12,-13.9
14,CCCc1n[nH]c(C2CN(Cc3nnc(C4CC4)n3C)CCO2)n1 (configuration not stated),-5.29
15,OCCn1nccc1C1CCN(CCOc2ccccc2F)CC1,-2.7
16,CCCn1ccc(C(=O)N2CCOC(c3nc(-c4cccs4)no3)C2)n1 (configuration not stated),4.34
17,Cc1c[nH]c(CN2CCCn3nc(CNS(C)(=O)=O)cc3C2)n1,16
18,CN(C)c1cccc(C(=O)NCC(O)c2cccs2)c1 (configuration not stated),20.3
19,CCN(Cc1cnn(C)c1)S(=O)(=O)c1ccc(NC(=O)C(C)(C)C)cc1,2.92
20,Cc1nc(C(=O)NCCS(=O)(=O)N2CCCC2)cs1,13.7
21,Cn1cc(C(=O)N2CCCC2c2noc(C3CC3)n2)c2ccccc21 (configuration not stated),-3.41
22,CCN1CC(C)(C)CN(C(=O)CCc2ccccc2)CC1=O,-5.69
23,Cc1cc(C)cc(OCCN(C)Cc2ccc(S(=O)(=O)N(C)C)o2)c1,19.6

row,Compound,cytotoxicity at 70.5 h [%]
1,Cc1ncsc1C(=O)Nc1ccccn1,-6.03
2,O=C(c1ccc(S(=O)(=O)NCc2ccon2)cc1)N1CCOCC1,19.9
3,CN1CCOC(C(=O)N2CCC3(CCCCC3)C2)C1 (configuration not stated),-5.38
4,CC(=O)N1CCC(c2nccnc2CNC(=O)c2cc[nH]n2)CC1,-4.85
5,COCC(=O)NCCc1ccc(I)s1,-8.78
6,Cn1cc(C(=O)OC2CN(c3nc4c(C(F)(F)F)cccc4s3)C2)nn1,1.02
7,CC(C)(C)c1cnc(CN2CCCS2(=O)=O)o1,-1.12
8,CC(=O)N1C[C@@H]2CN(S(=O)(=O)C3CC3)CCO[C@@H]2C1,-1.33
9,Cc1cc(-c2cnc(N3CCCC3)nc2C(C)C)on1,-7.72
10,CC(=O)Nc1nc2c(s1)C(C)(C)Nc1ccccc1S2,-2.23
11,CNC(=O)CC1COCCN1C(=O)C1(c2ccc(Cl)cc2)CCC1 (configuration not stated),7.35
12,CNC(=O)[C@@H]1C[C@@H](NC(=O)CSc2ccccc2)CN1C1CCOCC1,14.1
13,Cc1nc(C)c(CN2CCOC(Cc3ccccc3Cl)C2)nc1C (configuration not stated),-2.34
14,CN(C)C(CNS(=O)(=O)c1cnn(C)c1)c1cccc(F)c1 (configuration not stated),-1.66
15,CNC(=O)CN1CC[C@H]2CN(C(=O)c3cc[nH]n3)C[C@H]2C1,-8.85
16,CC1(c2ncc(CN3CCN(c4ccccn4)CC3)cn2)CCCCO1 (configuration not stated),-1.83
17,CCN(CC)CCn1cnc(-c2ccccc2)c1-c1cnc(C)s1,-7.41
18,O=C(Nc1ccccc1Cn1cncn1)C1CCN(C2CCCCC2)C1 (configuration not stated),-5.06
19,CNc1cncc(C2CCCN2Cc2ccnc(C)n2)n1 (configuration not stated),-0.507
20,COCCN1C(=O)CC[C@@H]2[C@H]1CCN2Cc1cccc(C#N)c1,-11.2
21,CCC[C@H]1CN(c2cncc(C(=O)N(C)C)n2)C[C@@H]1N(C)C,19.4
22,CCOCC1CCCN(C(=O)NCc2cn3c(C)cccc3n2)C1 (configuration not stated),9.89
23,O=C(CCn1cncn1)NCCOc1cccc(Cl)c1,-2.18

row,Compound,cytotoxicity at 70.5 h [%]
1,Cc1nc(CN2CCN(C(=O)CCc3cccnc3)CC2)no1,16.4
2,Cc1nc(C2CCCN2Cc2nccn2CC(F)(F)F)no1 (configuration not stated),-2.36
3,O=C(CCC(=O)c1ccccc1)NC1(C(=O)NCC2CC2)CCCC1,-9.03
4,O=C(NCC(O)c1ccoc1)Nc1c(F)cccc1F (configuration not stated),-9.03
5,Clc1ccccc1-c1nnc(CN2CCCC2Cn2cncn2)o1 (configuration not stated),-2.55
6,COc1ccc(NC(=O)CCC2CCCN(Cc3ncon3)C2)c(C)c1 (configuration not stated),-4.69
7,Cc1oc(C(C)C)cc1C(=O)N1C[C@H]2CC[C@@H]1CN(S(=O)(=O)N(C)C)C2,-7.52
8,COCCNC(=O)[C@@H]1CCO[C@@H]2CCN(c3ccc(C)nn3)C[C@@H]21,-15.8
9,Cn1c(CO[C@H]2CN(S(C)(=O)=O)C[C@H]2F)nc2ccccc21,-1.31
10,CCOC(=O)[C@@H]1[C@@H](O)C(=O)N(C)C12CCN(C(=O)c1ccco1)CC2,-4.06
11,CCN1CCNC(=O)C12CCN(C(=O)c1ccccn1)CC2,18.3
12,CC(C)c1nccc(C2CC(=O)Nc3n[nH]c(C4CCC4)c32)n1 (configuration not stated),2.19
13,c1cnc(N2CCOCC3(CCCN(CC4CCOCC4)C3)C2)nc1 (configuration not stated),-1.71
14,O=C(Cc1ccc2c(c1)OCCO2)N1CCCC(n2ccnc2)C1 (configuration not stated),18.8
15,COc1ccccc1C1=NOC(CC2(C(=O)NC(C)C)CCOCC2)C1 (configuration not stated),-4.53
16,Cc1sc(C(=O)NS(C)(=O)=O)cc1-c1ccc(F)cc1,-4.18
17,Cn1c(=O)c2c(n3ncnc13)NC(=O)CC2c1ccc(F)cc1 (configuration not stated),-11.1
18,COC(=O)CCNC(=O)c1nnn(-c2ccc(C)cc2)c1C1CC1,16.4
19,Cc1nn(Cc2ccc(F)cc2)c2[nH]nc(N)c12,-9.36
20,O=S(=O)(C1CC1)N1CCO[C@@H]2CN(Cc3ccco3)C[C@@H]2C1,-2.12
21,Cc1ccc(C2CN(C(=O)NCc3nnc4ccccn34)CCO2)o1 (configuration not stated),-10.6
22,Cc1nnc(CN(Cc2cccc3c2OCO3)CC2CCCO2)n1C (configuration not stated),-19.6
23,CNC(=O)c1cccc(Nc2cnn(C)c2)c1,-1.28

row,Compound,cytotoxicity at 70.5 h [%]
1,COCC(=O)N1CCN(C(=O)c2cccs2)C[C@H]1C(=O)OC,1.41
2,COc1ccc(-n2cccn2)c(CN2CCC(O)(CO)CC2)c1,-11.1
3,O=C(c1ccc[nH]1)N1CCc2ncc(Cn3cccn3)n2CC1,18.1
4,CCn1c(-c2ccccc2)nn(CC(=O)NCCc2ccc(C)o2)c1=O,-0.836
5,COCCn1cnc2ccc(NC(=O)CCCn3cccn3)cc2c1=O,-7.81
6,O=C([C@H]1CCCO1)N1CCc2ncnc(C3CC3)c2CC1,-11.8
7,CC(c1cccc(-c2ncccc2F)c1)N(C)C (configuration not stated),-14.8
8,CCNC(=O)CNC(=O)Nc1cccc(Cl)c1SC(F)F,0.0144
9,CC(C)(NCC(=O)NCC(F)(F)F)c1ccc2c(c1)OCCO2,-16.8
10,O=C(O)c1cc(S(=O)(=O)N2CCOc3ccccc32)ccc1F,0.682
11,CN1CCN(C(=O)Cc2ccc(F)cc2)Cc2cccnc21,5.52
12,Cc1ccc(N2CCO[C@@H]3CN(Cc4cccc(C)n4)CC[C@@H]3C2)nn1,-3.06
13,Cc1nnc(N2CCCC3(CN(Cc4nccn4C)CCO3)C2)o1 (configuration not stated),-0.85
14,O=C(c1cc2c(s1)CCC2)N1CCCC1c1noc(C2CC2)n1 (configuration not stated),-0.753
15,Cc1ccccc1OCCC(=O)NC(C)c1nnc2n1CCCCC2 (configuration not stated),-2.91
16,N#Cc1ccccc1OCCN1CCCC1Cn1cccn1 (configuration not stated),-4.78
17,CC(C)Cc1ncc2c(n1)CN(C(=O)c1ccc(Cn3ccnc3)o1)C2,-17.7
18,O=C(c1ccn(-c2ccccc2)n1)N1CCCC(n2cccn2)C1 (configuration not stated),-0.6
19,CCN(c1ccc(C(=O)NCCCN2CCOCC2)cc1)S(=O)(=O)CC,17.8
20,Cc1nn2cccnc2c1C(=O)N1CCCC(n2ccnc2C)C1 (configuration not stated),-4.03
